Assay results published in ChEMBL document CHEMBL1938343, “Lead optimisation of selective non-zinc binding inhibitors of MMP13. Part 2” (Bioorg Med Chem Lett, 2012).

Experiments:
Collagenase 3 = Collagenase 3 (Homo sapiens, UniProt P45452); assay: Inhibition of recombinant human MMP13 using Mca-Pro-cyclohexyl-Ala-Gly-Nva-His-Ala- Dap(Dnp)-NH2 as substrate by fluorometric analysis; conditions: read-out: pIC50 (converted)
[1] = Intrinsic clearance in human microsomes; type: ADME, Microsome
[2] = Apparent permeability across apical to basolateral side in human Caco2 cells at 10 uM; type: ADME, cell-based; conditions: Caco-2
[3] = Oral bioavailability in rat; type: ADME, organism-based; conditions: in vivo
[4] = molecular target: 72 kDa type IV collagenase (Homo sapiens, UniProt P08253); assay: Inhibition of MMP2 using Mca-Pro-cyclohexyl-Ala-Gly-Nva-His-Ala- Dap(Dnp)-NH2 as substrate by fluorometric analysis; conditions: read-out: pIC50 (converted)
[5] = Apparent permeability across basolateral to apical side in human Caco2 cells at 10 uM; type: ADME, cell-based; conditions: Caco-2
[6] = Intrinsic clearance in Sprague-Dawley rat hepatocytes assessed per 10^6 cells; type: ADME, cell-based, Hepatocyte; conditions: Sprague-Dawley, read-out: CLH
[7] = molecular target: Macrophage metalloelastase (Homo sapiens, UniProt P39900); assay: Inhibition of MMP12 using Mca-Pro-cyclohexyl-Ala-Gly-Nva-His-Ala- Dap(Dnp)-NH2 as substrate by fluorometric analysis; conditions: read-out: pIC50 (converted)
[8] = molecular target: Matrix metalloproteinase-14 (Homo sapiens, UniProt P50281); assay: Inhibition of MMP14 using Mca-Pro-cyclohexyl-Ala-Gly-Nva-His-Ala- Dap(Dnp)-NH2 as substrate by fluorometric analysis; conditions: read-out: pIC50 (converted)
[9] = molecular target: Matrix metalloproteinase-9 (Homo sapiens, UniProt P14780); assay: Inhibition of MMP9 using Mca-Pro-cyclohexyl-Ala-Gly-Nva-His-Ala- Dap(Dnp)-NH2 as substrate by fluorometric analysis; conditions: read-out: pIC50 (converted)
[10] = molecular target: MMP-2/MMP-13 (Homo sapiens) (UniProt P08253+P45452); assay: Selectivity ratio of pIC50 for MMP2 to pIC50 for recombinant human MMP13
MMP-2/MMP-13 (Homo sapiens), sequence (P08253 whole entry, looked up, other chains not shown): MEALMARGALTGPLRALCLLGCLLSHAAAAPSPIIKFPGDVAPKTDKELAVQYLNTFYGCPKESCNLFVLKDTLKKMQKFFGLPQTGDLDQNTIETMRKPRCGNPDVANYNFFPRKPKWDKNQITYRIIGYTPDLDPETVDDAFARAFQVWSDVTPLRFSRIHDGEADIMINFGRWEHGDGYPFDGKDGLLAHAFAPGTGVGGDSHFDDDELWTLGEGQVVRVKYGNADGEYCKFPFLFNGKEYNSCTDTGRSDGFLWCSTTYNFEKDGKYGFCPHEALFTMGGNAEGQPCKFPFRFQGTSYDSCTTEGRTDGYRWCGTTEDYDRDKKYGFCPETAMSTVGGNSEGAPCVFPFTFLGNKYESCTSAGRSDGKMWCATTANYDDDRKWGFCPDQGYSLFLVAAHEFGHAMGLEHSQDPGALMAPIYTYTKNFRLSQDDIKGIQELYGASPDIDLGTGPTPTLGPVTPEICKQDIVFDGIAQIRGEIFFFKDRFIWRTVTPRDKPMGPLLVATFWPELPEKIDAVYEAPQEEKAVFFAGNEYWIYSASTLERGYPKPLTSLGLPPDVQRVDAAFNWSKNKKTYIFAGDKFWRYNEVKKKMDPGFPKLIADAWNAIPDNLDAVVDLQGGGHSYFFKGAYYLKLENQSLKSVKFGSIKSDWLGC

Matrix metalloproteinase-9, sequence (P14780 whole entry): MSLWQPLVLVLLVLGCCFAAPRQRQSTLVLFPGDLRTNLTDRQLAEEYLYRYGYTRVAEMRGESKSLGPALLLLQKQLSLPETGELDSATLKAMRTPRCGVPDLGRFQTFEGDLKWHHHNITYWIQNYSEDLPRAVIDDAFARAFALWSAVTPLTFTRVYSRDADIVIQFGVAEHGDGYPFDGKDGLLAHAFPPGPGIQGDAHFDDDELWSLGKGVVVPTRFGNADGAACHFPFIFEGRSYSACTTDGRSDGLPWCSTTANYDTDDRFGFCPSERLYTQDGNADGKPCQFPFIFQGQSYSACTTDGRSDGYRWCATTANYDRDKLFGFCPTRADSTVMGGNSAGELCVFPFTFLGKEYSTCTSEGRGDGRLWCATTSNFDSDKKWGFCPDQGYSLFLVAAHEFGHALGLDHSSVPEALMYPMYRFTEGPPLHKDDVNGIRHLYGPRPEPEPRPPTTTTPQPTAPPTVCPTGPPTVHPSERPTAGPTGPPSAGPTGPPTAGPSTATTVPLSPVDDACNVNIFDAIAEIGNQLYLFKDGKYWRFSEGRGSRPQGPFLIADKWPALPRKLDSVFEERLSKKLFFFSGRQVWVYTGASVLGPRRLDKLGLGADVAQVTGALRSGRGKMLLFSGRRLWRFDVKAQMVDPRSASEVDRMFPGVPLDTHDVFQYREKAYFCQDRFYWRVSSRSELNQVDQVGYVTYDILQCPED
Macrophage metalloelastase, sequence (P39900 whole entry): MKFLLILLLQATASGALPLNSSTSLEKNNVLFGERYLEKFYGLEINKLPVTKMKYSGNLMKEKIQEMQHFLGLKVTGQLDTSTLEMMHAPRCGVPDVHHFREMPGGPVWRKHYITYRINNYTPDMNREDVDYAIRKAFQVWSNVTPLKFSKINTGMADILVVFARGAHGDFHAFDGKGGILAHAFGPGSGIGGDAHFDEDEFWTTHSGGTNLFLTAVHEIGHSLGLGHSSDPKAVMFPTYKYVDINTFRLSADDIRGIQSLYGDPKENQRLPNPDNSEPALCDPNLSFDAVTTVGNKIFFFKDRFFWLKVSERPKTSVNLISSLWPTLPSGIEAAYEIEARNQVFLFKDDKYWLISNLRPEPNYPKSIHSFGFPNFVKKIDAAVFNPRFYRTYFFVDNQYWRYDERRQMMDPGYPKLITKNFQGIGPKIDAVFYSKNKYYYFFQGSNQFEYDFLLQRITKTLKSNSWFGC
72 kDa type IV collagenase, sequence (P08253 whole entry): as the sequence (P08253 whole entry, looked up, other chains not shown) above

SMILES	IC50 (Collagenase 3)	microsomal CLint [1]	IC50 [4]	further results
CS(=O)(=O)Nc1ccc(Oc2ccc(C#C[C@]3(O)CN4CCC3CC4)cc2)cc1	2510 nM	–	–	–
Cc1cc(CN(C)C(=O)c2ccc(Oc3ccc(C#C[C@]4(O)CN5CCC4CC5)cc3)cc2)on1	79.4 nM	2.7 µL/min/mg	7940 nM	Papp A→B at 10 µM [2]: 8.2 ×10⁻⁶ cm/s; bioavailability [3]: 3%; Papp B→A at 10 µM [5]: 53 ×10⁻⁶ cm/s
CN(C)C(=O)c1ccc(Oc2ccc(C#C[C@]3(O)CN4CCC3CC4)cc2)cc1	1580 nM	–	–	–
CNS(=O)(=O)c1ccc(Oc2ccc(C#C[C@]3(O)CN4CCC3CC4)cc2)cc1	100 nM	–	–	–
CS(=O)(=O)c1ccc(Oc2ccc(C#C[C@]3(O)CN4CCC3CC4)cc2)cc1	316 nM	–	–	–
CS(=O)(=O)N1CCC(NC(=O)c2ccc(Oc3ccc(C#C[C@]4(O)CN5CCC4CC5)cc3)cc2)CC1	50.1 nM	2.9 µL/min/mg	7940 nM	hepatocyte CLint [6]: < 2 µL/min/1e6 cells; IC50 [7]: > 10000 nM; IC50 [8]: > 10000 nM; IC50 [9]: > 10000 nM
O=C(NCc1ccnc2ccccc12)c1ccc(Oc2ccc(C#C[C@]3(O)CN4CCC3CC4)cc2)cc1	20 nM	26.1 µL/min/mg	2000 nM	–
O=C(NCc1ccc(F)cc1)c1ccc(Oc2ccc(C#C[C@]3(O)CN4CCC3CC4)cc2)cc1	100 nM	–	6310 nM	–
CC[C@@H](C)NC(=O)c1ccc(Oc2ccc(C#C[C@]3(O)CN4CCC3CC4)cc2)cc1	50.1 nM	8.9 µL/min/mg	6310 nM	–
CS(=O)(=O)Oc1cccc(CNC(=O)c2ccc(Oc3ccc(C#C[C@]4(O)CN5CCC4CC5)cc3)cc2)c1	63.1 nM	8.6 µL/min/mg	7940 nM	–
CNC(=O)N1CCC(NC(=O)c2ccc(Oc3ccc(C#C[C@]4(O)CN5CCC4CC5)cc3)cc2)CC1	50.1 nM	< 2 µL/min/mg	3980 nM	IC50 [7]: > 10000 nM; IC50 [8]: > 10000 nM; IC50 [9]: > 10000 nM
COc1ccc(CNC(=O)c2ccc(Oc3ccc(C#C[C@]4(O)CN5CCC4CC5)cc3)cc2)nc1	31.6 nM	5.6 µL/min/mg	> 10000 nM	Ratio pIC50 [10]: > 300
O=C(NC1CCS(=O)(=O)CC1)c1ccc(Oc2ccc(C#C[C@]3(O)CN4CCC3CC4)cc2)cc1	100 nM	2.5 µL/min/mg	> 10000 nM	IC50 [7]: > 10000 nM; IC50 [8]: > 10000 nM; IC50 [9]: > 10000 nM
O=C(NCC1CCCCC1)c1ccc(Oc2ccc(C#C[C@]3(O)CN4CCC3CC4)cc2)cc1	100 nM	–	5010 nM	–
CC(=O)Nc1ccc(Oc2ccc(C#C[C@]3(O)CN4CCC3CC4)cc2)cc1	> 10000 nM	–	–	–
CC(=O)N1CCC(NC(=O)c2ccc(Oc3ccc(C#C[C@]4(O)CN5CCC4CC5)cc3)cc2)CC1	39.8 nM	2.5 µL/min/mg	5010 nM	hepatocyte CLint [6]: < 2 µL/min/1e6 cells; IC50 [7]: > 10000 nM; IC50 [8]: > 10000 nM; IC50 [9]: > 10000 nM
COc1cc(CNC(=O)c2ccc(Oc3ccc(C#C[C@]4(O)CN5CCC4CC5)cc3)cc2)cc(OC)c1	50.1 nM	4.8 µL/min/mg	7940 nM	–
CCOC(=O)c1ccc(Oc2ccc(C#C[C@]3(O)CN4CCC3CC4)cc2)cc1	1000 nM	–	–	–
O=C(NCc1ccncc1)c1ccc(Oc2ccc(C#C[C@]3(O)CN4CCC3CC4)cc2)cc1	–	10.2 µL/min/mg	6310 nM	–

SMILES	IC50 (Collagenase 3)	microsomal CLint [1]	IC50 [4]	further results
CS(=O)(=O)c1cccc(CNC(=O)c2ccc(Oc3ccc(C#C[C@]4(O)CN5CCC4CC5)cc3)cc2)c1	31.6 nM	12.5 µL/min/mg	7940 nM	–
C[S+]([O-])c1ccc(Oc2ccc(C#C[C@]3(O)CN4CCC3CC4)cc2)cc1 (stereo partly specified)	398 nM	–	–	–
OCc1ccc(Oc2ccc(C#C[C@]3(O)CN4CCC3CC4)cc2)cc1	> 10000 nM	–	–	–
O=C(NC1CCN(C(=O)C2CC2)CC1)c1ccc(Oc2ccc(C#C[C@]3(O)CN4CCC3CC4)cc2)cc1	25.1 nM	3.7 µL/min/mg	6310 nM	IC50 [7]: > 10000 nM; IC50 [8]: > 10000 nM; IC50 [9]: > 10000 nM
O=C(O)c1ccc(Oc2ccc(C#C[C@]3(O)CN4CCC3CC4)cc2)cc1	5010 nM	–	–	–
CONC(=O)c1ccc(Oc2ccc(C#C[C@]3(O)CN4CCC3CC4)cc2)cc1	2510 nM	–	–	–
CN(Cc1ccncc1)C(=O)c1ccc(Oc2ccc(C#C[C@]3(O)CN4CCC3CC4)cc2)cc1	251 nM	–	> 10000 nM	–
O=C(Nc1ccccn1)c1ccc(Oc2ccc(C#C[C@]3(O)CN4CCC3CC4)cc2)cc1	316 nM	< 2 µL/min/mg	> 10000 nM	–
O=C(NC1CCCCC1)c1ccc(Oc2ccc(C#C[C@]3(O)CN4CCC3CC4)cc2)cc1	25.1 nM	2.9 µL/min/mg	> 10000 nM	–
O=C(NC1CCN(C2CC2)CC1)c1ccc(Oc2ccc(C#C[C@]3(O)CN4CCC3CC4)cc2)cc1	79.4 nM	4.7 µL/min/mg	7940 nM	IC50 [7]: > 10000 nM; IC50 [8]: > 10000 nM; IC50 [9]: > 10000 nM
N#Cc1cccc(CNC(=O)c2ccc(Oc3ccc(C#C[C@]4(O)CN5CCC4CC5)cc3)cc2)c1	63.1 nM	9.9 µL/min/mg	> 10000 nM	–
O=C(NC1CCS(=O)(=O)C1)c1ccc(Oc2ccc(C#C[C@]3(O)CN4CCC3CC4)cc2)cc1 (stereo partly specified)	79.4 nM	< 2 µL/min/mg	7940 nM	hepatocyte CLint [6]: < 2 µL/min/1e6 cells; IC50 [7]: > 10000 nM; IC50 [8]: > 10000 nM; IC50 [9]: > 10000 nM
COc1ccc(CNC(=O)c2ccc(Oc3ccc(C#C[C@]4(O)CN5CCC4CC5)cc3)cc2)c(OC)c1	39.8 nM	16.1 µL/min/mg	6310 nM	–
COc1cccc(CNC(=O)c2ccc(Oc3ccc(C#C[C@]4(O)CN5CCC4CC5)cc3)cc2)c1	79.4 nM	10.9 µL/min/mg	> 10000 nM	–
NC(=O)c1ccc(Oc2ccc(C#C[C@]3(O)CN4CCC3CC4)cc2)cc1	631 nM	–	–	–
CC(C)NC(=O)c1ccc(Oc2ccc(C#C[C@]3(O)CN4CCC3CC4)cc2)cc1	100 nM	–	> 10000 nM	–
C[C@@H](NC(=O)c1ccc(Oc2ccc(C#C[C@]3(O)CN4CCC3CC4)cc2)cc1)c1ccncc1	12.6 nM	18.8 µL/min/mg	3980 nM	Ratio pIC50 [10]: > 300
O=C(NCc1ccccc1)c1ccc(Oc2ccc(C#C[C@]3(O)CN4CCC3CC4)cc2)cc1	63.1 nM	< 2 µL/min/mg	7940 nM	–
COc1ccc(CNC(=O)c2ccc(Oc3ccc(C#C[C@]4(O)CN5CCC4CC5)cc3)cc2)cc1OC	10 nM	2.7 µL/min/mg	1260 nM	–
